According to patent US11026888B1, “Functional beverage compositions and methods of using and making same” (Nutrition Therapeutics, Inc., priority 2019, dated 2021):

Experiments:
[1] = dissolving of CBD within pomegranate seed oil; type: physicochemical; details: even at refrigeration temperatures
Description: (§1) For broad-based consumer success, it is desirable that a functional beverage product consistent in flavor, quality, and mouthfeel be manufacturable using an easily replicated process, and be food-safe. Immiscible components can result in material floating on the surface of the beverage, wherein the immiscible materials can shelter can promote the growth of contaminating organisms or provide localized regions survivable from pasteurizing temperatures. Additionally, such immiscible components can become a choking hazard to the unaware consumer. Non-polar compounds mix well with other non-polar compounds.

[2] = vigorous mixing with water: miscibility / solubility; type: physicochemical; details: mixed vigorously
Description: Over time, the non-polar compounds will aggregate together and fall out of aqueous suspension. […] Beverages manufactured with only polar and non-polar substances would behave and result in a composition having an immiscible and undesirable tactile quality; pomegranate seed oil mixed with water is likely to result in a fatty or oily layer on top of the water, or with CBD, the water surface peppered with crystalline flakes. In most cases, the non-polar components are likely to adhere to the sides of the container.
as §1

C=C(C)[C@@H]1CCC(C)=C[C@H]1c1c(O)cc(CCCCC)cc1O [CBD, cannabidiol]
dissolving within pomegranate seed oil [1]: successful dissolving | behaviour in water after vigorous mixing [2]: non-dissolving solid
